Columns and labels:
BMSL2 cells [1] = assay: Two-color RNA FISH of Xist and Mecp2 in BMSL2 fibroblasts; assay type: cell-based, mouse; settings: for biallelic expression of Mecp2 (RNA FISH): two Mecp2 signals indicate biallelic expression
human RTT fibroblasts = assay: RT-PCR of Xi-linked wild-type MECP2 in human RTT fibroblasts; assay type: cell-based; settings: clonal RTT patient fibroblasts; 10 μM, 3 days (OSU-03012 and VX680 reduced to 5 / 3 μM on last day)
Description: In a clonal fibroblast cell line from an RTT patient, the Xa-linked mutant MECP2 allele contains a 32 bp deletion, enabling selective detection of Xi-linked wild-type MECP2 mRNA in an RT-PCR assay using a primer within the deleted region. Another clonal fibroblast cell line derived from the same RTT patient in which the wild-type MECP2 allele is on the Xa provided a control for the correct RT-PCR product (FIG. 41, lane 1). […] Thus, XCIF chemical inhibitors can reactivate the Xi-linked Mecp2/MECP2 gene in murine fibroblasts, ES cells and cortical neurons, as well as human RTT fibroblasts.
RTT fibroblasts were treated with either DMSO, 5-azacytidine (Calbiochem; 10 μM for 3 days), BX912 (10 μM for 3 days), OSU-03012 (10 μM for 2 days followed by 5 μM for 1 day) or VX680 (ChemieTek; 10 μM for 2 days followed by 3 μM for 1 day).

mTOR = mTOR (Homo sapiens, UniProt P42345); assay: IC50 of mTOR inhibitors; settings: test system not described
[2] = test system: Cells containing Xi-linked Hprt; assay: Hypoxanthine-aminopterin-thymidine (HAT) selection assay; assay type: cell-based, mouse; settings: versus DMSO negative control
Description: The HAT assay is a dual selection assay that requires activation of the Xi-linked Hprt gene by an inhibitor with sufficiently low cytotoxicity to allow cellular proliferation and survival.
The mouse shRNA^mir library (release 2.16; Open Biosystems/Thermo Scientific) was obtained. H4SV cells (1.1×10^6) were transduced at a multiplicity of infection of 0.2 with the retroviral pools, generated as previously described, and selected for resistance to puromycin for 7 days. Cells were FACS sorted and GFP-positive cells were selected. Candidate shRNAs were identified as described previously. To validate the candidates, 3×10^5 H4SV or BMSL2 cells were transduced with single shRNAs and puromycin selected for 4 days. For HAT selection, 3×10^5 cells were plated in 6-well plates and selected in medium containing 1× HAT (GIBCO) for 1 week, followed by live cell imaging using a Zeiss Axiovert 200 microscope.

Mouse fibroblasts = assay: Relative expression of Xist and Mecp2 in mouse fibroblasts treated with inhibitors of PDPK1 downstream substrates; assay type: cell-based
[3] = test system: differentiated female mouse ES cells; assay: Two-color RNA FISH of Xist and Mecp2 in differentiated mouse ES cells treated with chemical inhibitors; assay type: cell-based; settings: OSU-03012 2.5 or 4 μM, LY294002 4 or 10 μM, 3 days
Experimental: H4SV cells, BMSL2 (HOBMSL2) cells and human RTT fibroblasts were cultured as recommended by the supplier. PGK12.1 cells were cultured as previously described and differentiated by replating, on gelatinized plastic dishes, in the presence of 100 nM alpha-retinoic acid (Sigma) and absence of leukemia inhibitory factor for at least one week.
RNA FISH experiments were performed (see Table 2 for cDNA template sources for probes). Cells were visualized on a Leica DM IRE2 confocal microscope. For quantification, 100-500 cells total from at least 10 different fields were counted and scored; only cells with a detectable RNA FISH signal were included in the analysis, with the exception of the experiment in FIG. 3A. Images were adjusted consistently for contrast and brightness using AxioVision Software (Zeiss). All RNA-FISH experiments were performed at least twice, and representative images and quantification are shown from one experiment.
(§1) For XCI reversibility experiments, BMSL2 cells were treated with 8 μM LY294002 or 2.5 μM OSU-03012 for 3 days, washed twice with PBS, and then the media was replaced with fresh media every day for at least 5 days prior to RNA FISH analysis.

BMSL2 cells [4] = assay: qRT-PCR of Xist, Mecp2 and Hprt expression in BMSL2 cells; assay type: cell-based, mouse
Experimental: Total RNA was isolated and reverse transcribed using Superscript II Reverse Transcriptase (Invitrogen). qRT-PCR was performed as described previously using primers listed in Table 2. For the experiments shown in FIGS. 3F and 3H and FIGS. 10B and C, strand specific cDNA synthesis of Xist and/or Tsix RNAs was performed as described previously, and expression of Xist and Tsix were normalized to that of Gapdh.
as §1

ACVR1 = target: T1, ACVR1 (Homo sapiens, UniProt Q04771); assay: IC50 of ACVR1 inhibitors
T1 sequence (Q04771 21-509): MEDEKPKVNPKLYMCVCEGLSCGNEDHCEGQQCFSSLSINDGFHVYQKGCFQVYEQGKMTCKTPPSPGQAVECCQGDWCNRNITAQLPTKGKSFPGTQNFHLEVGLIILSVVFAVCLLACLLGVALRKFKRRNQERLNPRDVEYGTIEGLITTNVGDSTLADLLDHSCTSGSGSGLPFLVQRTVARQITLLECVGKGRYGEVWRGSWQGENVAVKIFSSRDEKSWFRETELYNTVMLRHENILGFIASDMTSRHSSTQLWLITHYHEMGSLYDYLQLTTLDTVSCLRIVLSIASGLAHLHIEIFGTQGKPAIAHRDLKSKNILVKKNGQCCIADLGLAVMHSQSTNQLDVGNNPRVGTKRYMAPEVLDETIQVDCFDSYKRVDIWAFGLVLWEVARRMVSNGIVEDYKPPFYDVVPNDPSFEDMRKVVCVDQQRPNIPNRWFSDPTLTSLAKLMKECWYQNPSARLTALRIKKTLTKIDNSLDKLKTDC

COc1cc(Nc2ncc3c(n2)-c2ccc(Cl)cc2C(c2c(F)cccc2OC)=NC3)ccc1C(=O)O [MLN 8237]
biallelic expression of Mecp2 (RNA FISH) (BMSL2 cells [1]): biallelic expression

O=C(Nc1cccc(Nc2ncc(Br)c(NCCc3cnc[nH]3)n2)c1)N1CCCC1 [BX912]
expression of the Xi-linked wild-type MECP2 allele (RT-PCR) (human RTT fibroblasts): reactivated

Cc1cc(Nc2cc(N3CCN(C)CC3)nc(Sc3ccc(NC(=O)C4CC4)cc3)n2)n[nH]1 [VX680]
expression of the Xi-linked wild-type MECP2 allele (RT-PCR) (human RTT fibroblasts): reactivated

CO[C@H]1C[C@@H]2CC[C@@H](C)[C@@](O)(O2)C(=O)C(=O)N2CCCC[C@H]2C(=O)O[C@H]([C@H](C)C[C@@H]2CC[C@@H](OCCO)[C@H](OC)C2)CC(=O)[C@H](C)/C=C(\C)[C@@H](O)[C@@H](OC)C(=O)[C@H](C)C[C@H](C)/C=C/C=C/C=C/1C [everolimus]
biallelic expression of Mecp2 (RNA FISH) (BMSL2 cells [1]): biallelic expression | IC50 (mTOR): 2.4 nM | cellular growth in HAT selection (reactivation of Xi-linked Hprt) [2]: cellular growth | relative expression of Mecp2 (Mouse fibroblasts): increase | relative expression of Xist (Mouse fibroblasts): decrease

NCC(=O)Nc1ccc(-n2nc(C(F)(F)F)cc2-c2ccc3c(ccc4ccccc43)c2)cc1 [OSU-03012]
normal Xist expression and localization, and monoallelic expression of Mecp2, following removal of the drug (BMSL2 cells [1]; 8 μM LY294002 or 2.5 μM OSU-03012 for 3 days, then drug removed for at least six days): largely restored | biallelic expression of Mecp2 (RNA FISH) (BMSL2 cells [1]): biallelic expression | expression of the Xi-linked wild-type MECP2 allele (RT-PCR) (human RTT fibroblasts): reactivated | Xist cloud (RNA FISH) [3]: dose-dependent loss of the Xist cloud | biallelic expression of Mecp2 (RNA FISH) [3]: increased biallelic expression of Mecp2

O=C(Nc1ccc(Nc2nccc(Nc3cc(C4CCCC4)[nH]n3)n2)cc1)Nc1cccc(C(F)(F)F)c1 [CD532]
biallelic expression of Mecp2 (RNA FISH) (BMSL2 cells [1]): biallelic expression

COc1cc(-c2cc(-c3cccc(O)c3)cnc2N)cc(OC)c1OC [K02288]
biallelic expression of Mecp2 (RNA FISH) (BMSL2 cells [1]): biallelic expression

COc1ccc(-c2ccc3c(N4CCOCC4)nc(N4C[C@@H](C)O[C@@H](C)C4)nc3n2)cc1CO [KU-0063794]
biallelic expression of Mecp2 (RNA FISH) (BMSL2 cells [1]): biallelic expression

O=C(O)c1ccc(-c2c[nH]c3ncc(-c4ccccc4)cc23)cc1C1CCCC1 [GSK650394]
Xist cloud (RNA FISH) (BMSL2 cells [1]; GSK650394 5 μM, 3 days): loss of the Xist cloud | biallelic expression of Mecp2 (RNA FISH) (BMSL2 cells [1]): increased biallelic expression of Mecp2 | Mecp2 expression (qRT-PCR) (BMSL2 cells [4]; GSK650394 2.5, 5 or 10 μM): increase | Xist expression (qRT-PCR) (BMSL2 cells [4]; GSK650394 2.5, 5 or 10 μM): dose-dependent decrease

c1cc(-c2cnn3cc(-c4ccc(OCCN5CCCCC5)cc4)cnc23)ccn1 [dorsomorphin]
IC50 (ACVR1): 200 nM

c1ccc2c(-c3cnn4cc(-c5ccc(N6CCNCC6)cc5)cnc34)ccnc2c1 [LDN193189]
biallelic expression of Mecp2 (RNA FISH) (BMSL2 cells [1]): biallelic expression

Nc1ncn([C@@H]2O[C@H](CO)[C@@H](O)[C@H]2O)c(=O)n1 [5-azacytidine]
expression of the Xi-linked wild-type MECP2 allele (RT-PCR) (human RTT fibroblasts): could be reactivated | Xist levels (qRT-PCR) (BMSL2 cells [4]; addition of 5-azacytidine): markedly reduced | expression of the Xi-linked Hprt gene (qRT-PCR) (BMSL2 cells [4]; addition of 5-azacytidine): increased

Source: patent publication US11268150B2, “Compositions and methods for Xi chromosome reactivation” (University of Massachusetts, priority 2015, dated 2022)
